Details: for log10 BCF / log10 biotransformation half-life (days): fish

| SMILES | boiling point [°C] | melting point [°C] | further results |
| --- | --- | --- | --- |
| CCC=C(C)C=C(C)C | 138 | – | – |
| O=S(=O)(Oc1ccc(Cl)cc1)c1ccc(Cl)cc1 | – | 86.5 | ready biodegradability: not readily biodegradable |
| CCCC(CCC)C(C)C | 159 | – | – |
| CC(C)(C)c1ccncc1 | 196 | -41 | – |
| CCOC(=O)c1ccncc1 | 220 | 23 | – |
| CNC(C)C | 50.4 | – | – |
| O=c1c2ccccc2nc2n1CCc1c-2[nH]c2ccccc12 | – | 260 | – |
| Nc1ccc([N+](=O)[O-])cc1O | – | 208 | – |
| Oc1cccc(F)c1 | 178 | 13.7 | – |
| CC(C)(C)c1cc([N+](=O)[O-])c(O)c([N+](=O)[O-])c1 | – | 95 | – |
| Cc1cccc(C)c1C(=O)O | 274 | 116 | – |
| O=P(O)(O)CP(=O)(O)O | – | 200 | – |
| Cc1ccc2c(ccc3cc4ccccc4cc32)c1 | – | 156 | – |
| C[C@H]1C[C@H]2[C@@H]3CCC4=CC(=O)C=C[C@]4(C)[C@H]3C(=O)C[C@]2(C)[C@@]1(O)C(=O)CO | – | 202 | – |
| C/C(=N\O)C(=O)c1ccccc1 | – | 114 | – |
| C=CCSCC=C | 139 | -85 | log10 vapour pressure (mmHg): 0.965 |
| CCON=C(CC)C1=C(O)CC(c2c(C)cc(C)cc2C)CC1=O (stereo unspecified) | – | 106 | log10 vapour pressure (mmHg): -8.56 |
| S=c1[nH]c2ccccc2[nH]1 | – | 298 | ready biodegradability: not readily biodegradable |
| CCCC(O)C(C)(C)C (stereo unspecified) | 156 | – | – |
| CC(C)C(=O)OCCc1ccccc1 | 250 | – | – |
| CCCCN1CCCCC1 | 176 | – | – |
| CC1CCCC1C (stereo unspecified) | – | – | log10 biodegradation half-life (days): 0.602; log10 vapour pressure (mmHg): 1.67 |
| O=C(O)C1CCNCC1 | – | 336 | – |
| Cc1ccc(C(=O)O)o1 | – | 110 | – |

| SMILES | boiling point [°C] | melting point [°C] | further results |
| --- | --- | --- | --- |
| O=C=Nc1ccccc1 | 163 | – | log10 vapour pressure (mmHg): 0.41 |
| O=C(CCCN1CCN(c2ccccn2)CC1)c1ccc(F)cc1 | – | 74 | – |
| CCC(C)(C)CC(C)(C)C | 154 | – | – |
| CCCCCCCCCCCCCCCC(=O)OCC | – | 24 | log10 vapour pressure (mmHg): -4.63 |
| CCN(CC)S(=O)(=O)c1ccc(C(=O)O)cc1 | – | 193 | – |
| Cc1[nH]c2ccccc2c1C | 285 | 106 | – |
| ClC/C=C/CCl | 155 | -14.2 | log10 vapour pressure (mmHg): 0.574 |
| Oc1ccc(Cc2ccccc2)cc1 | 322 | 84 | ready biodegradability: not readily biodegradable; log10 BCF: 1.33; log10 biotransformation half-life (days): -0.86 |
| N#Cc1ccccc1OCC(O)CNCCNC(=O)Cc1ccc(O)cc1 (stereo unspecified) | – | 119 | – |
| O=[N+]([O-])Cc1ccccc1 | 226 | – | – |
| CC#CCCO | 154 | – | – |
| O=Cc1ccc(O)cc1O | – | 135 | – |
| CCC(C)(C)Cl | 85.5 | -73.5 | – |
| CN(C)c1ccc(Br)cc1 | 264 | 55 | – |
| COCCOC1=C(N2CC2)C(=O)C(OCCOC)=C(N2CC2)C1=O | – | 80 | – |
| O=C[C@H](O)[C@@H](O)[C@H](O[C@@H]1O[C@H](CO)[C@@H](O)[C@H](O)[C@H]1O)[C@H](O)CO | – | 240 | – |
| CCCCCCCCCCc1ccccc1 | 298 | -14.4 | log10 vapour pressure (mmHg): -2.89; log10 biotransformation half-life (days): 0.63 |
| O=C(c1ccccc1)C(O)c1ccccc1 (racemic) | 344 | 137 | log10 vapour pressure (mmHg): -5.28 |
| COC(=O)c1cc(Cl)ccc1N | – | 67 | – |
| O[C@H]1CC[C@H](O)CC1 | – | 143 | – |
| CC(=O)C=Cc1ccco1 | – | 39.5 | – |
| CCOC(=O)C=C(C)C(=O)OCC | 228 | – | – |
| O=C(Cl)C=Cc1ccccc1 | 257 | 36 | – |
| Clc1ccc2oc3c(Cl)c(Cl)c(Cl)c(Cl)c3c2c1Cl | – | – | log10 Koa: 10.9 |

| SMILES | boiling point [°C] | melting point [°C] | further results |
| --- | --- | --- | --- |
| O=C(F)c1ccccc1 | 154 | -28 | – |
| Cc1ccc(Cl)cc1O | – | – | ready biodegradability: not readily biodegradable |
| NCCCNCCCN | – | -14 | – |
| CC(C)C[C@H](N)C(=O)O | – | 293 | – |
| Oc1cccc(Cl)c1O | – | 48.5 | – |
| CCCC(=O)C(=O)CCC | 168 | – | – |
| C=C[C@H]1CN2CCC1C[C@@H]2[C@@H](O)c1ccnc2ccccc12 (stereo partly specified) | – | 238 | – |
| Cc1ccc(Cl)c(O)c1 | 213 | 50.8 | ready biodegradability: not readily biodegradable; log10 BCF: 0.67 |
| CC(C)c1ccc(C(C)C)cc1 | 210 | -17 | log10 vapour pressure (mmHg): -0.609; ready biodegradability: not readily biodegradable; log10 BCF: 3.24; log10 biotransformation half-life (days): 0.6 |
| O=C(O)CNc1ccccc1 | – | 128 | – |
| Cc1ccc(C)c2c1C(=O)c1ccccc1C2=O | – | 140 | – |
| CC1=CC(=O)C=C(C)C1=O | – | 72.5 | – |
| CCCCOc1ccccc1 | 210 | -19.4 | log10 vapour pressure (mmHg): -0.529 |
| CC(C)[C@@H](Br)C(=O)O | 230 | 44 | – |
| COc1ccc2c(c1O)[C@]13CCN(C)[C@H](C2)[C@@H]1C=CC(=O)C3 | – | 152 | – |
| c1ccc2ncncc2c1 | 241 | 48 | – |
| CN(C)C(CSC(N)=O)CSC(N)=O | – | – | ready biodegradability: not readily biodegradable |
| COCCOCCOCCO | 249 | -44 | ready biodegradability: readily biodegradable |
| COCCOC | 85 | -58 | log10 vapour pressure (mmHg): 1.68 |
| CN=C(O)/C(=N/OC)c1ccccc1Oc1ccccc1 | – | 88 | log10 vapour pressure (mmHg): -6.87 |
| CC1=NNC(=O)N(/N=C/c2cccnc2)C1 | – | 217 | – |
| C[C@@H](O)CC(=O)O | – | 47.5 | – |
| CNC(=S)NCc1ccccc1 | – | 75 | – |
| CC(CC(C)(C)C)CC(C)(C)C | 178 | -67 | log10 BCF: 2.94; log10 biotransformation half-life (days): 0.72 |

| SMILES | boiling point [°C] | melting point [°C] | further results |
| --- | --- | --- | --- |
| Cl.NCCc1ccc(O)c(O)c1 | – | 249 | – |
| CC=C1CCCC1 | 115 | -130 | – |
| c1ccc(C2=NCCN2)cc1 | – | 96.5 | – |
| OCc1cccc(CO)c1 | – | 57 | – |
| C=C(C)C(=O)OCCOCCOCCOCCOC(=O)C(=C)C | 220 | – | – |
| C=Cc1ccccc1C | 170 | -68.5 | log10 vapour pressure (mmHg): 0.268 |
| CC(C)(O)C#N | 171 | -19 | log10 vapour pressure (mmHg): -0.467; ready biodegradability: readily biodegradable |
| C1CCC2OC2C1 (stereo unspecified) | 132 | – | – |
| Clc1cc(Cl)c(Cl)c(-c2ccc(Cl)c(Cl)c2Cl)c1 | – | – | log10 Henry constant (atm·m³/mol): -4.43 |
| Cc1cccc(C(N)=O)c1 | – | 95 | – |
| ClSC(Cl)(Cl)Cl | 148 | – | log10 vapour pressure (mmHg): 0.477 |
| Clc1ccc(Cl)c(-c2c(Cl)ccc(Cl)c2Cl)c1Cl | – | – | log10 Henry constant (atm·m³/mol): -4.06; log10 Koc (L/kg): 6.01; log10 biotransformation half-life (days): 2.34 |
| C#CCCCCCCCCC | 196 | -25 | – |
| C=C(C)c1cc(=O)c(O)ccc1CC=C(C)C | – | 71.5 | – |
| O=C(Nc1ccc2ncccc2c1)Nc1ccc2ncccc2c1 | – | 262 | – |
| CNC(=S)NC | – | 62 | – |
| C[C@@H]1CC[C@H]2[C@@H]1[C@H]1[C@@H](CC[C@@]2(C)O)C1(C)C | 292 | 105 | – |
| COC(=O)c1ccc(N)cc1 | – | 110 | – |
| c1ccc2c(-c3cccc4ccccc34)cccc2c1 | – | 160 | – |
| CCCCN=C=O | 115 | – | log10 vapour pressure (mmHg): 1.25 |
| CN(C)C1CSSC1 | – | 177 | log10 BCF: 1.72 |
| CC(C)CCOC(=O)C(=O)OCCC(C)C | 268 | -9 | – |

Source: the OPERA property sets (Mansouri et al. 2018)
